Experimental data taken from US8158636B2, “Compounds and methods for kinase modulation, and indications therefor” (Plexxikon Inc., priority 2008, dated 2012).

Legend:
Type in all cases: biochemical
Kit = Kit (Homo sapiens, UniProt P10721); assay: Kinase activity assay, Kit; conditions: Table 1j; read-out: activity toward kinase Kit, IC50
Description: (§1) Assays for the activity of kinases, including, but not limited to, Fms, Kit, B-Raf, B-Raf V600E, c-Raf-1, and TrkA are known in the art, for example as described in US Patent Publication Number US20070032519 and U.S. patent application Ser. No. 11/473,347 (see also, PCT publication WO2007002433), the disclosures of which are hereby incorporated by reference with respect to such assays.

Flt-3 = target: T1, Flt-3 (Homo sapiens, UniProt P36888); assay: Kinase activity assay, Flt-3; conditions: Table 1g; read-out: activity toward kinase Flt-3, IC50
T1 sequence (P36888 27-993): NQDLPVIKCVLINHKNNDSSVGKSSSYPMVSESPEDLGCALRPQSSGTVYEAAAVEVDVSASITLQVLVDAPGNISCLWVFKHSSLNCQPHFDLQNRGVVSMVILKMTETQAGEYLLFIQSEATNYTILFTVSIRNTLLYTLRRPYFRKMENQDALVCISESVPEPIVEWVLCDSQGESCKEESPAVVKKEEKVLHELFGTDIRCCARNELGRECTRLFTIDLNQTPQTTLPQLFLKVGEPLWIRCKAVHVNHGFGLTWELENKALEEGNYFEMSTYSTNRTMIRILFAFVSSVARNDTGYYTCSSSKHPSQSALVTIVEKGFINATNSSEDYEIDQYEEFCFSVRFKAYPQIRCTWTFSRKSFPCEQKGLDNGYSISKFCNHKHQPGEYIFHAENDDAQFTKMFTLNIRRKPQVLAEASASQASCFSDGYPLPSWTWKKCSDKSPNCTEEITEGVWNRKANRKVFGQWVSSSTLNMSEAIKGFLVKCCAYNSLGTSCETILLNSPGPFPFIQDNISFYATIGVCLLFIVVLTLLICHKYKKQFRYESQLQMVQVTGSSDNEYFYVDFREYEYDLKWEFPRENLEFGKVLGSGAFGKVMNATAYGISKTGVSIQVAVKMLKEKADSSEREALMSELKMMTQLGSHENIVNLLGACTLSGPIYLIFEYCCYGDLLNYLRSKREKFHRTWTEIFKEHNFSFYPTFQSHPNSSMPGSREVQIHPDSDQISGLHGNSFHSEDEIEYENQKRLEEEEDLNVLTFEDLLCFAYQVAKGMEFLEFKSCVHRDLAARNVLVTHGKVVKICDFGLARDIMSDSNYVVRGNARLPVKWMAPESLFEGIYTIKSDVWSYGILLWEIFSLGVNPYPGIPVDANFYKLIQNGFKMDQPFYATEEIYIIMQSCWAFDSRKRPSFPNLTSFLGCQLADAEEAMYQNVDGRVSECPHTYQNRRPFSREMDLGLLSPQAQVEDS
Description: as §1

Kdr = Kdr (Homo sapiens, UniProt P35968); assay: Kinase activity assay, Kdr; conditions: Table 1i; read-out: activity toward kinase Kdr, IC50
Sequence of Kdr (P35968 20-1356): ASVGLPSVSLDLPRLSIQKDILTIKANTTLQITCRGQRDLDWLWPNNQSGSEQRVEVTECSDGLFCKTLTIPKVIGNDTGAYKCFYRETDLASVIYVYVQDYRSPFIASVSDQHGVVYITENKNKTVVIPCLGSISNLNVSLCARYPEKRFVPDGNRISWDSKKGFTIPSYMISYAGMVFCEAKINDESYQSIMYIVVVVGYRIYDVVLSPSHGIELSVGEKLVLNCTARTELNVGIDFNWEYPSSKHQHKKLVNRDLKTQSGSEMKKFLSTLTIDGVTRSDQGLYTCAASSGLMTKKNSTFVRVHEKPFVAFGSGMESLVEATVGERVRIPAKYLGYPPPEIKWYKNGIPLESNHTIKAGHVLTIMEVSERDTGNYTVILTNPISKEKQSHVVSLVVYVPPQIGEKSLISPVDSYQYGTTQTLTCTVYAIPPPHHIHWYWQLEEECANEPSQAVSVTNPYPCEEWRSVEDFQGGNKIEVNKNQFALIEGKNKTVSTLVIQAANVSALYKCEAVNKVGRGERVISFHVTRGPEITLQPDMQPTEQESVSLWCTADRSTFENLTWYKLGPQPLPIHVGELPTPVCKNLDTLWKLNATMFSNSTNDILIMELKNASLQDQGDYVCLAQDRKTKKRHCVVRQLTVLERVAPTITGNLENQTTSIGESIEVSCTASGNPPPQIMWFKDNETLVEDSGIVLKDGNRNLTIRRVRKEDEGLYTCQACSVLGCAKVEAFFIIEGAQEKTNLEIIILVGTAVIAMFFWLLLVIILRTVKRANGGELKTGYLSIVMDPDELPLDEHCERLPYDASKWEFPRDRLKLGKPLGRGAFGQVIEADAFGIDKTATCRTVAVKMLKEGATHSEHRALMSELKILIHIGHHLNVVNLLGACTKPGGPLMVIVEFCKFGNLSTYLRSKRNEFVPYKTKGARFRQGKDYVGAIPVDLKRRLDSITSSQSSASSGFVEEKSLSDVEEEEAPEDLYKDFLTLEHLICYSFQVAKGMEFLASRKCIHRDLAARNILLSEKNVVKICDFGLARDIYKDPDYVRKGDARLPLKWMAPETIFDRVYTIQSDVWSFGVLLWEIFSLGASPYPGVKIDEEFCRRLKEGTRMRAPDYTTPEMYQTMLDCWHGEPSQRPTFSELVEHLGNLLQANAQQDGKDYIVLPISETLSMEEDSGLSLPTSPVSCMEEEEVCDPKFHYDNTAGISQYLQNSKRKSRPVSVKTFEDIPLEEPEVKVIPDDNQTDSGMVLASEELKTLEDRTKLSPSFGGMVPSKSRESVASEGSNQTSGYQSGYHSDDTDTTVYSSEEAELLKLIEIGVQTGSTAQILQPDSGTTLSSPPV
Description: as §1

Fms = Fms (Homo sapiens, UniProt P07333); assay: Kinase activity assay, Fms; conditions: Table 1h; read-out: activity toward kinase Fms, IC50
Description: as §1

B-Raf V600E = B-Raf V600E (Homo sapiens, UniProt P15056, V600E); assay: Kinase activity assay, B-Raf V600E; conditions: Table 1c; read-out: activity toward kinase B-Raf V600E, IC50
Sequence of B-Raf V600E (P15056 whole entry V600E): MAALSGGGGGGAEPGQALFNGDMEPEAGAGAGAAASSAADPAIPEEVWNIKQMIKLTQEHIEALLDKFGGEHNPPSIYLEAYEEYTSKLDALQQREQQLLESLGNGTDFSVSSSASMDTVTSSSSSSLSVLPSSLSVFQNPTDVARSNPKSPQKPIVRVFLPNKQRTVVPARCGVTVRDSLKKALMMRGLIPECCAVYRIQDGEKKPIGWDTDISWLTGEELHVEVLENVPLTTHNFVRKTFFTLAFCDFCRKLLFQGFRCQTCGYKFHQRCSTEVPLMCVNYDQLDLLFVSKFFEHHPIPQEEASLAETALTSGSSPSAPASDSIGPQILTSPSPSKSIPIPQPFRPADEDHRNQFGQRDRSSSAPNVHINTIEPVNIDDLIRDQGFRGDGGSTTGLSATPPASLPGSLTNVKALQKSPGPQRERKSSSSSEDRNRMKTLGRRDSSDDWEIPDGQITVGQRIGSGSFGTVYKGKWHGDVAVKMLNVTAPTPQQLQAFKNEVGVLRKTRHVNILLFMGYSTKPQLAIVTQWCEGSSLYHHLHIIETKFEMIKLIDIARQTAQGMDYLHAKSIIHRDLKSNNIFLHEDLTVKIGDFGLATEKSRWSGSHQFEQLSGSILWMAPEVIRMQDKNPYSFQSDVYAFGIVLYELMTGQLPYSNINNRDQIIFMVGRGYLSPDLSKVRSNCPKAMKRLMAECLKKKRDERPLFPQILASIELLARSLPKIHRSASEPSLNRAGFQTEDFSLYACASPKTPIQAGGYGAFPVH
Description: as §1

Src = Src (Homo sapiens, UniProt P12931); assay: Kinase activity assay, Src; conditions: Table 1k; read-out: activity toward kinase Src, IC50
Sequence of Src (P12931 whole entry): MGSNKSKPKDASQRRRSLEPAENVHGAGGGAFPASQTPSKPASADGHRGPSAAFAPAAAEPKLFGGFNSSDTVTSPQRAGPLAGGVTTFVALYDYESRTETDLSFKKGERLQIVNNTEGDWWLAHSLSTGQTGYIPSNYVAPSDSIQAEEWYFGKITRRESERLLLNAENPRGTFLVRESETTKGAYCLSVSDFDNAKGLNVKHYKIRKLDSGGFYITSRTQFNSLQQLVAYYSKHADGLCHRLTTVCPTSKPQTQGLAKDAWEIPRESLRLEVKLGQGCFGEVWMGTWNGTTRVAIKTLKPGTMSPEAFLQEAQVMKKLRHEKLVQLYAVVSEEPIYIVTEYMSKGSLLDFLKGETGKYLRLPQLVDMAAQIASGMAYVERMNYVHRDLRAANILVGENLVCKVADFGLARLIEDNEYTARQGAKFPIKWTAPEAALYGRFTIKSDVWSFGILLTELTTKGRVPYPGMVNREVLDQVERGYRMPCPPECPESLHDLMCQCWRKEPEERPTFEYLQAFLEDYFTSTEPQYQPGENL
Description: as §1

TrkA = TrkA (Homo sapiens, UniProt P04629); assay: Kinase activity assay, TrkA; conditions: Table 1m; read-out: activity toward kinase TrkA, IC50
Sequence of TrkA (P04629 33-796): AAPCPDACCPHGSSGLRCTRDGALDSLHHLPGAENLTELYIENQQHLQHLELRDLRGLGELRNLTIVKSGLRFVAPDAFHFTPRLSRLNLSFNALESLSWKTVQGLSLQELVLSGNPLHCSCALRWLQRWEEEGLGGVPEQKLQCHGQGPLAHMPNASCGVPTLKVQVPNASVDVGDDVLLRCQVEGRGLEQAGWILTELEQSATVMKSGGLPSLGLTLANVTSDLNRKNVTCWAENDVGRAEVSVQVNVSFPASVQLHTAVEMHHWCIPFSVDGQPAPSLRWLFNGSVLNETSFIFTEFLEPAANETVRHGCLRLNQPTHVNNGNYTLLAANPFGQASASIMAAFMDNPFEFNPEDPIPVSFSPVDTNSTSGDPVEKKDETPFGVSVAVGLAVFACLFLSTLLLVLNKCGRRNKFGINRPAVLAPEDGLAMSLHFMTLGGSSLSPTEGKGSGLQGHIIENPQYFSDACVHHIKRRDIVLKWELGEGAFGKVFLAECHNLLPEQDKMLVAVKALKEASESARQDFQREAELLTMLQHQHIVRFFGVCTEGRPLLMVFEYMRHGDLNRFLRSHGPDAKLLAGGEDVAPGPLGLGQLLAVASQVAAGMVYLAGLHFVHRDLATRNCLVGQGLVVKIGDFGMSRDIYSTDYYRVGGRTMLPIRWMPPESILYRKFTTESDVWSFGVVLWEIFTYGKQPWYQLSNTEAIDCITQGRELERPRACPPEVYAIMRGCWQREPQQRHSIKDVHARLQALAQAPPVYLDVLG
Description: as §1

B-Raf = B-Raf (Homo sapiens, UniProt P15056); assay: Kinase activity assay, B-Raf; conditions: Table 1b; read-out: activity toward kinase B-Raf, IC50
Sequence of B-Raf (P15056 whole entry): as the sequence (P15056 whole entry V600E) above, with E600V counted along it
Description: as §1

C-Raf = C-Raf (Homo sapiens, UniProt P04049); assay: Kinase activity assay, C-Raf; conditions: Table 1d; read-out: activity toward kinase C-Raf, IC50
Sequence of C-Raf (P04049 whole entry): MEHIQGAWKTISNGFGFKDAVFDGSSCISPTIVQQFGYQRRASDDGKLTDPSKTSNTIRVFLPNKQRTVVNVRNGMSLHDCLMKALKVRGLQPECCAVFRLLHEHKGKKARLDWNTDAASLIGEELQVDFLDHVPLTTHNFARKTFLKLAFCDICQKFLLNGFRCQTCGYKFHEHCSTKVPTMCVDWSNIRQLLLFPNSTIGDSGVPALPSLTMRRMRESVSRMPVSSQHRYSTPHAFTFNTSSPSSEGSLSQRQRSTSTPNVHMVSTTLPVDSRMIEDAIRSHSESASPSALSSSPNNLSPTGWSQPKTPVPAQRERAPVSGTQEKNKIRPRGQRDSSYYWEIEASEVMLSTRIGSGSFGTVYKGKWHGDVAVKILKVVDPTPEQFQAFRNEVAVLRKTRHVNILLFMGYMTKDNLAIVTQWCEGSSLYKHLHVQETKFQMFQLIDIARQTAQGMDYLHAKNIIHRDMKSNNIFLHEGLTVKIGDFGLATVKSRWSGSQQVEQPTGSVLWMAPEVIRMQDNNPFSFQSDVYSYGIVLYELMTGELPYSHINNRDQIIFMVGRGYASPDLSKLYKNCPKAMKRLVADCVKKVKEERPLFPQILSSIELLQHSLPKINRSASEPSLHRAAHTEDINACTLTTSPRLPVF
Description: as §1

Sequence of Kit (P10721 26-976): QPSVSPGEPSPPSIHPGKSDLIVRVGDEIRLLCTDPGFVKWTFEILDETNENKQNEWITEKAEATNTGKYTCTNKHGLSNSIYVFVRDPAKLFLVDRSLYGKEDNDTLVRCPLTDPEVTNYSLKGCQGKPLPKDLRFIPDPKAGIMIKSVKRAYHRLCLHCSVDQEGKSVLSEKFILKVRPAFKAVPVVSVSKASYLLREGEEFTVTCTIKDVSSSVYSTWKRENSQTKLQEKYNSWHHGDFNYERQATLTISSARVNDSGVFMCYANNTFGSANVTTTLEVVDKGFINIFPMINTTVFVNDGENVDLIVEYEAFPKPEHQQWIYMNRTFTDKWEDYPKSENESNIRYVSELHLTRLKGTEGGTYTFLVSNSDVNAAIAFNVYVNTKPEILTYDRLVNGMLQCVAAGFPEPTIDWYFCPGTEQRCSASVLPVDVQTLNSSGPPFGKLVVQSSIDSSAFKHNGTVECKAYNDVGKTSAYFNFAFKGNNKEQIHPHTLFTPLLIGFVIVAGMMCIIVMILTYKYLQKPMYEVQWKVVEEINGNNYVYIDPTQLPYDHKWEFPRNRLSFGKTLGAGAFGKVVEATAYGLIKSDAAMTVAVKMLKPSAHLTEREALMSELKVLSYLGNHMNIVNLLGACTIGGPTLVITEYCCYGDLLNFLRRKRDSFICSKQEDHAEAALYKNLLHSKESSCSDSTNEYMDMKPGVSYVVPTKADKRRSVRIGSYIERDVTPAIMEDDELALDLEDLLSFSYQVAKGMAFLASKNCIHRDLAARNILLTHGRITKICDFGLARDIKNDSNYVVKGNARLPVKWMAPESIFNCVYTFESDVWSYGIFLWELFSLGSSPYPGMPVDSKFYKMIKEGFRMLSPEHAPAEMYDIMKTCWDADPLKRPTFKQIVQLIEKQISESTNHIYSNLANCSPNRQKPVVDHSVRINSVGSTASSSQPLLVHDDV

Structure (SMILES) | IC50 (Kit) [µM] | IC50 (Flt-3) [µM] | IC50 (Kdr) [µM] | IC50 (Fms) [µM] | IC50 (B-Raf V600E) [µM] | IC50 (Src) [µM] | IC50 (TrkA) [µM] | IC50 (B-Raf) [µM] | IC50 (C-Raf) [µM]
COc1ccc(CNc2ccc(Cc3c[nH]c4ncncc34)cn2)cn1 [P-0002, (6-Methoxy-pyridin-3-ylmethyl)-[5-(7H-pyrrolo[2,3-d]pyrimidin-5-ylmethyl)-pyridin-2-yl]-amine] | ≤ 10 | ≤ 10 | ≤ 10 | ≤ 10 | ≤ 10 | – | – | – | –
Fc1nc(NCc2ccccc2Cl)ccc1Cc1c[nH]c2ncncc12 [P-0005, (2-Chloro-benzyl)-[6-fluoro-5-(7H-pyrrolo[2,3-d]pyrimidin-5-ylmethyl)-pyridin-2-yl]-amine] | ≤ 10 | ≤ 10 | ≤ 10 | ≤ 10 | – | ≤ 10 | ≤ 10 | – | –
COc1ncc(CNc2ccc(Cc3c[nH]c4ncncc34)c(F)n2)cc1F [P-0010, (5-Fluoro-6-methoxy-pyridin-3-ylmethyl)-[6-fluoro-5-(7H-pyrrolo[2,3-d]pyrimidin-5-ylmethyl)-pyridin-2-yl]-amine] | – | ≤ 10 | ≤ 10 | ≤ 10 | – | – | ≤ 10 | – | –
COc1ccc(CNc2ccc(Cc3c[nH]c4ncncc34)c(F)n2)c(OC)n1 [P-0043, (2,6-Dimethoxy-pyridin-3-ylmethyl)-[6-fluoro-5-(7H-pyrrolo[2,3-d]pyrimidin-5-ylmethyl)-pyridin-2-yl]-amine] | ≤ 10 | – | ≤ 10 | ≤ 10 | – | – | – | ≤ 10 | –
CS(=O)(=O)c1ccc(F)cc1CNc1ccc(Cc2c[nH]c3ncncc23)c(F)n1 [P-0052, (5-Fluoro-2-methanesulfonyl-benzyl)-[6-fluoro-5-(7H-pyrrolo[2,3-d]pyrimidin-5-ylmethyl)-pyridin-2-yl]-amine] | – | – | – | ≤ 10 | ≤ 10 | – | ≤ 10 | ≤ 10 | ≤ 10
Fc1nc(NCc2ccc(N3CCCC3)cn2)ccc1Cc1c[nH]c2ncncc12 [P-0089, [6-Fluoro-5-(7H-pyrrolo[2,3-d]pyrimidin-5-ylmethyl)-pyridin-2-yl]-(5-pyrrolidin-1-yl-pyridin-2-ylmethyl)-amine] | ≤ 10 | – | ≤ 10 | ≤ 10 | ≤ 10 | ≤ 10 | – | – | –
COc1ncnc2[nH]cc(Cc3ccc(NCc4ccccc4Cl)nc3F)c12 [P-0090, (2-Chloro-benzyl)-[6-fluoro-5-(4-methoxy-7H-pyrrolo[2,3-d]pyrimidin-5-ylmethyl)-pyridin-2-yl]-amine] | ≤ 10 | – | – | ≤ 10 | – | ≤ 10 | ≤ 10 | – | –
COc1cc(Cc2c[nH]c3ncnc(OC)c23)cnc1NCc1ccc(C(F)(F)F)nc1 [P-0096, [3-Methoxy-5-(4-methoxy-7H-pyrrolo[2,3-d]pyrimidin-5-ylmethyl)-pyridin-2-yl]-(6-trifluoromethyl-pyridin-3-ylmethyl)-amine] | ≤ 10 | – | ≤ 10 | ≤ 10 | – | – | – | ≤ 10 | ≤ 10
COc1ncccc1CNc1ccc(Cc2c[nH]c3ncnc(OC)c23)c(F)n1 [P-0097, [6-Fluoro-5-(4-methoxy-7H-pyrrolo[2,3-d]pyrimidin-5-ylmethyl)-pyridin-2-yl]-(2-methoxy-pyridin-3-ylmethyl)-amine] | ≤ 10 | – | – | ≤ 10 | – | ≤ 10 | ≤ 10 | – | –
COc1ncnc2[nH]cc(Cc3ccc(NCc4ccc(C(F)(F)F)nc4)nc3)c12 [P-0100, [5-(4-Methoxy-7H-pyrrolo[2,3-d]pyrimidin-5-ylmethyl)-pyridin-2-yl]-(6-trifluoromethyl-pyridin-3-ylmethyl)-amine] | ≤ 10 | – | ≤ 10 | ≤ 10 | ≤ 10 | – | ≤ 10 | ≤ 10 | ≤ 10

Continued, values first:

IC50 (Kit) [µM] | IC50 (Flt-3) [µM] | IC50 (Kdr) [µM] | IC50 (Fms) [µM] | IC50 (B-Raf V600E) [µM] | IC50 (Src) [µM] | IC50 (TrkA) [µM] | IC50 (B-Raf) [µM] | IC50 (C-Raf) [µM] | Structure (SMILES)
≤ 10 | ≤ 10 | ≤ 10 | – | ≤ 10 | – | – | – | – | COc1ccc(CNc2ccc(C(=O)c3c[nH]c4ncncc34)cn2)cn1 [P-0008, {6-[(6-Methoxy-pyridin-3-ylmethyl)-amino]-pyridin-3-yl}-(7H-pyrrolo[2,3-d]pyrimidin-5-yl)-methanone]
≤ 10 | – | ≤ 10 | ≤ 10 | ≤ 10 | – | ≤ 10 | ≤ 10 | ≤ 10 | Fc1nc(NCc2cccnc2OC2CCCC2)ccc1Cc1c[nH]c2ncncc12 [P-0070, (2-Cyclopentyloxy-pyridin-3-ylmethyl)-[6-fluoro-5-(7H-pyrrolo[2,3-d]pyrimidin-5-ylmethyl)-pyridin-2-yl]-amine]
– | – | ≤ 10 | ≤ 10 | – | ≤ 10 | – | – | – | CC(C)c1ncc(CNc2ccc(Cc3c[nH]c4ncncc34)c(F)n2)cn1 [P-0079, [6-Fluoro-5-(7H-pyrrolo[2,3-d]pyrimidin-5-ylmethyl)-pyridin-2-yl]-(2-isopropyl-pyrimidin-5-ylmethyl)-amine]
≤ 10 | – | ≤ 10 | ≤ 10 | ≤ 10 | – | – | ≤ 10 | ≤ 10 | c1cnc(OC2CCCC2)c(CNc2ncc(Cc3c[nH]c4ncncc34)cn2)c1 [P-0086, (2-Cyclopentyloxy-pyridin-3-ylmethyl)-[5-(7H-pyrrolo[2,3-d]pyrimidin-5-ylmethyl)-pyrimidin-2-yl]-amine]
≤ 10 | – | – | ≤ 10 | – | ≤ 10 | – | – | ≤ 10 | COc1ncc(CNc2ncc(Cc3c[nH]c4ncnc(OC)c34)cn2)cc1F [P-0092, (5-Fluoro-6-methoxy-pyridin-3-ylmethyl)-[5-(4-methoxy-7H-pyrrolo[2,3-d]pyrimidin-5-ylmethyl)-pyrimidin-2-yl]-amine]
≤ 10 | – | – | ≤ 10 | ≤ 10 | ≤ 10 | ≤ 10 | – | – | COc1ncnc2[nH]cc(Cc3ccc(NCc4cnccc4C(F)(F)F)nc3F)c12 [P-0095, [6-Fluoro-5-(4-methoxy-7H-pyrrolo[2,3-d]pyrimidin-5-ylmethyl)-pyridin-2-yl]-(4-trifluoromethyl-pyridin-3-ylmethyl)-amine]
≤ 10 | – | ≤ 10 | ≤ 10 | ≤ 10 | – | ≤ 10 | ≤ 10 | ≤ 10 | COc1ncnc2[nH]cc(Cc3cnc(NCc4ccc(C(F)(F)F)nc4)nc3)c12 [P-0102, [5-(4-Methoxy-7H-pyrrolo[2,3-d]pyrimidin-5-ylmethyl)-pyrimidin-2-yl]-(6-trifluoromethyl-pyridin-3-ylmethyl)-amine]
≤ 10 | – | ≤ 10 | ≤ 10 | ≤ 10 | – | ≤ 10 | ≤ 10 | ≤ 10 | COc1ncnc2[nH]cc(Cc3cnc(NCc4ccc(C(F)(F)F)nc4)c(F)c3)c12 [P-0103, [3-Fluoro-5-(4-methoxy-7H-pyrrolo[2,3-d]pyrimidin-5-ylmethyl)-pyridin-2-yl]-(6-trifluoromethyl-pyridin-3-ylmethyl)-amine]
≤ 10 | ≤ 10 | – | ≤ 10 | – | – | – | – | – | FC(F)(F)c1ccc(CNc2ccc(Cc3c[nH]c4ncnc(C5CCCC5)c34)cn2)cn1 [P-0104, [5-(4-Cyclopentyl-7H-pyrrolo[2,3-d]pyrimidin-5-ylmethyl)-pyridin-2-yl]-(6-trifluoromethyl-pyridin-3-ylmethyl)-amine]
